Data taken from PMC5430962, “Retro-inverso Urokinase Receptor Antagonists for the Treatment of Metastatic Sarcomas” (Scientific Reports, 2017).
[ ]: non-standard residue; d: D form. Aib = CC(C)(N)C(=O)O

Assays:
[1] = Stability in human serum, read out as retained inhibition of HT1080 matrigel invasion; format: in vitro ADME; conditions: pre-incubated at 10^−3 M in human serum 18 hr at 37 °C; tested at 10 nM on HT1080 matrigel invasion, Boyden chambers, 6 hr; three experiments in triplicate
Experimental: A major limitation of peptides for use as therapeutics is susceptibility to degradation by serum proteases. The stability of RI-3 in bovine and human serum was investigated by comparing inhibitory activities of RI-3 and RI-3 pre-incubated at 10^−3 M with serum for 18 hr at 37 °C on cell migration and invasion. HT1080 cells were allowed to migrate for 18 hr toward DMEM (CTRL), 10% FBS (None), 10% FBS plus 10 nM RI-3 or 10% FBS with 10 nM RI-3 pre-incubated in bovine serum. […] The stability of RI-3 in human serum was investigated in cell invasion experiments performed in Boyden chambers. […]
(a) HT1080 cells were allowed to migrate in real time for 18 hr toward DMEM (CTRL), or 10% FBS in the absence (None) or the presence of 10 nM RI-3 or 10 nM RI-3 pre-incubated at 10^−3 M in bovine serum for 18 hr at 37 °C. […] The basal value assessed in the absence of FBS (CTRL) was taken as 100% and all values were reported relative to that. Data are the means ± SD three independent experiments, performed in triplicate. *Indicates statistical significance calculated against None, with *P < 0.05, **P < 0.0001. (c) Cell proliferation of HT1080 cells assessed by MTS assay. […] At the indicated times, the absorbance of adherent cells was assessed with a microplate reader. […]

HT1080 cells = experiment: Cell proliferation, MTS assay; format: cell-based, human; conditions: 10 µM in growth medium, replaced every 24 hr
Experimental: Cell proliferation was assessed using the xCELLigence RTCA technology as described. Cells (2 × 10^3/well) were seeded in E-well plates in growth medium and left to growth for 85 hr in the presence or the absence of 10 µM RI-3. For MTS assay, cells seeded on plates in growth medium plus/minus 10 µM RI-3, were allowed to proliferate at 37 °C in 5% CO2 and the absorbance of adherent cells stained with tetrazolium/formazan was assessed with a microplate reader. In both cases, medium with or without RI-3 was replaced every 24 hr. Data are the means ± SD of three independent experiments, performed in triplicate.

Ac-[dY][dR][Aib][dR]-NH2 (SMILES CC(=O)N[C@H](Cc1ccc(O)cc1)C(=O)N[C@H](CCCNC(=N)N)C(=O)NC(C)(C)C(=O)N[C@H](CCCNC(=N)N)C(N)=O) [RI-3]
inhibitory activity retained after pre-incubation with human serum [1]: 81% | effect on number of metabolically active cells (MTS) (HT1080 cells): no difference was apparent
